Experiment [1] relates to HT-29. Kind of experiment: Induction of apoptosis in human HT-29 cells assessed as viable cells at 200 nM incubated for 24 hrs by FITC/PI staining based flow cytometry analysis (reference value: 91.6%). Type of experiment: functional. Particulars: read-out: Activity. For orientation: A flow cytometer gives signals particle by particle.
The test system of experiment [2] is HT-29. Kind of experiment: Induction of apoptosis in human HT-29 cells assessed as upregulation of Bax level at 50 to 200 nM incubated for 24 hrs by Western blot analysis. It is filed as functional, cell-based. The settings on record: dose 50-200 nM. (A western blot detects proteins with antibodies after separation by electrophoresis.)
Experiment [3] deals with HepG2. Kind of experiment: Antiproliferative activity against human HepG2 cells assessed as cell viability incubated for 72 hrs by MTT assay. Type of experiment: functional, cell-based. The settings on record: HepG2, 72 h. (In general: Formazan colour is commonly taken as a measure of viable cells.)
Experiment [4] deals with MDA-MB-231. Kind of experiment: cells. Particulars: Homo sapiens, MDA-MB-231, 72 h.
Description: Antiproliferative activity against human MDA-MB-231 cells assessed as cell viability incubated for 72 hrs by MTT assay
For experiment [5], the system named is HT-29. Kind of experiment: Inhibition of colony formation in human HT-29 cells. It is filed as functional, cell-based. Particulars: dose 25-200 nM.

Experimental findings from ChEMBL document CHEMBL6092217 (Eur J Med Chem, 2024) are described below.

By pIC50 is commonly meant the negative decadic logarithm of the IC50, by convention in mol/L.

Structures are written as SMILES. pIC50: −log10 of the molar value. Active and inactive are the calls of the source. The rule behind the calls is not given here.

In the case of `COc1ccc(N(C)c2nc(/C=C/c3cccc(OC)c3)nc3ccccc23)cc1`, the viability at 0.2 µM in experiment [1] is 43.2%. Besides, in experiment [2], the outcome was Active. Moreover, the pIC50 in experiment [3] is 6.72; in experiment [4], 6.36. For the same molecule, the inhibition entry in experiment [5] was “Dose-dependent-effect”.
